Legend:
[1] = molecular target: T1, FGF2 (Homo sapiens, UniProt P09038); assay: Competition with biotinylated recombinant TSP-1 domain (E123CaG1) for binding to FGF2 (DELFIA); conditions: for IC50: mean ± SE of 3 experiments; for fold more active than the initial query SM27 (competition IC50): vs SM27
T1 construct: purchased R&D Systems, obtained through the NCI-Biological Resources Branch

[2] = molecular target: T1, FGF2; assay: SPR direct binding to sensorchip-immobilized FGF2; conditions: single site model, one experiment representative of two, read-out: Kd (dissociation constant) of FGF2/compound interaction
Description: SPR measurements were performed on a BIAcore X100 instrument (GE-Healthcare, WI). FGF2 was immobilized on a CM5 sensorchip (GE-Healthcare) as described, allowing the immobilization of 7,365 resonance units (RU) (410 fmol/mm^2 of FGF-2).
Suppl. Table S2. Determination of the affinity (Kd) of the FGF2/compound interactions by
Binding parameters were calculated by the non-linear curve fitting software package BIAevaluation
3.2 using a single site model with correction for mass transfer. Dissociation constant (Kd) values
were derived from the dissociation rate/association ratio. Only sensorgrams whose fitting gave
values of X2 lower than 10 were used {Khalifa, 2001 #213}.

[3] = system: FGF2-induced vessels sprouting, murine aortic rings; assay: Aortic rings assay (FGF2-induced vessels sprouting, 3D Matrigel); parameters: species or system C57BL/6 mice; conditions: FGF2 30 ng/ml, small molecules 100 μM
Description: Figure 4 Biological activity of the selected hits. (A) Endothelial cell proliferation. BAEC were exposed to FGF2 (5 ng/ml) with increasing concentrations of molecules (3–80 μM). After 72 h, cells were stained and proliferation measured as absorbance. Data are the percentage of control proliferation (in absence of molecules), mean of value from 2 experiments performed in triplicate. (B–D) Aortic ring assay. Sections of murine aortas were embedded in Matrigel, in the presence of FGF2 (30 ng/ml) and the indicated small molecule. The formation of capillary structures sprouting from the rings was analyzed after 7 and 11 days as described in Methods, and the angiogenic response expressed as area covered by the sprouting structures (arbitrary units, mean and SE, n ≥ 6). (B) Antiangiogenic activity of the small molecules (100 μM). (C) Examples of time-dependent and dose-dependent effect of two compounds (SM.2–20 and SM.2–23), tested at 100 (diamond), 50 (circle) and 25 μM (triangle) compared to control (black squares). (D) Representative pictures of sprouting from control and SM.2–23 treated aortic sections. Original magnification, 20x. (E,F) Chorioallantoic membrane assay. FGF2 (200 ng) was administered in the absence or presence of the indicated compound (0.5 μg) on day 8 (n = 10). (E) Angiogenic response is evaluated 4 days later, and expressed as number of vessels entering the sponge (mean and SD). (F) Representative pictures are shown. Original magnification, 50x.
Thoracic aortas were removed from mice, cleaned of perivascular adipose tissue and cut into 1 mm segments. Matrigel (75 μl, BD Biosciences) was added to 96 well plates, and allowed to gellify at 37 °C for 30 min. Aortic sections were added to the wells, and covered with a second layer of Matrigel and DMEM 5% FCS containing FGF2 (30 ng/ml) and the indicated concentration of the compounds. The formation of capillary structures sprouting from the rings was analyzed after 4, 7 and 11 days with an inverted-phase contrast microscope (IX70; Olympus). Images were analyzed with ImageJ 1.48, and the angiogenic response expressed as area covered by the sprouting structures (arbitrary units), substracted the area of the aortic section.

[4] = Dynamic Light Scattering (photon correlation spectroscopy) and Zeta potential analysis of aggregates in solution; type: physicochemical; conditions: for Zeta potential: 1mg/ml solution, in mV (unit assumed)
Text: Binding of 5 water-soluble compounds to FGF2 was further analyzed by surface plasmon resonance (SPR). All the compounds were able to bind FGF2 immobilized to a SPR sensorchip (Suppl. Figure S2). […] In the context of biophysical characterization of compounds, we also tested the formation of aggregates in solution by representative compounds SM.2-16, SM.2-20 and SM.2-23, using Dynamic Light Scattering, which allows measuring nanoparticle size and polydispersion index (by Photocorrelation Spectroscopy) and surface charge (Zeta potential). For all the molecules, at concentrations between 0.03 and 1 mg/ml, the hydrodynamic radius ranged from 2.1 to 2.9 nm, with polydispersity index values between 0.5 and 0.6 (Table 2): no significant variation in the hydrodynamic radius was observed upon decreasing the concentrations, typically indicative of a non-aggregated state. Zeta potential values were strongly negative (indicative of molecule dissociation), ranging from −48 to −52 (Table 2). These findings therefore indicate that the solutions are fairly monodispersed, containing mainly single, charged molecules.
The Photon correlation spectroscopy (PCS) and the Zeta Potential (Zp) values were measured using the Zetasizer Nano ZS (Malvern, Worcestshire, UK), as detailed in Supplementary Material. Data were analyzed by Zetasizer software, version 7.11 (Malvern, Worcestshire, UK).
Photon correlation spectroscopy and Zeta Potential analysis. Photon correlation spectroscopy (PCS) and the Zeta Potential (Zp) values were measured using the Zetasizer Nano ZS (Malvern, Worcestshire, UK) with a fixed 173° scattering angle and a 633 -nm-helium-neon-laser. Data were analyzed by Zetasizer software, version 7.11 (Malvern, Worcestshire, UK). The set up temperature […]
Samples were dissolved in 1 ml of deionized water with 1% HBSS (Hanks’ Balanced Salt solution) to obtain a concentration of about 3mg/ml. For PCS experiments the solution was further diluted with HBSS to the indicated concentration, transferred to a disposable folded capillary cell at room temperature and analyzed 10’ minutes post-diluting.
For Zp measurements, 1mg/ml solution of the compounds were used. Due to the high conductivity of buffer solution precluding electrophoretic mobility measurements, about 3mg of samples were solubilized in 1% HBSS and diluted with suitable volume of deionized water. The solution, was transferred to a disposable folded capillary cell (Malvern, Worcestshire, UK) at room temperature and analyzed 10’ post-diluting. […]

T1 sequence (P09038 134-288 limits assumed): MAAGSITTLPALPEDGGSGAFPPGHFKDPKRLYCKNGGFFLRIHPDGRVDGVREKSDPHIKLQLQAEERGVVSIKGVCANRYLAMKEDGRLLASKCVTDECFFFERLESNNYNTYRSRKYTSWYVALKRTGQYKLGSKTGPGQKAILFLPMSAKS

| Structure (SMILES) | IC50 [1] [µM] | Kd [2] [µM] | fold more active than the initial query SM27 (competition IC50) [1] | Hydrodynamic Radius ([4]; 0.03125 mg/ml) [nm] | PdI (polydispersion index) ([4]; 0.03125 mg/ml) | Hydrodynamic Radius ([4]; 0.0625 mg/ml) [nm] | PdI (polydispersion index) ([4]; 0.0625 mg/ml) | Hydrodynamic Radius ([4]; 0.125 mg/ml) [nm] | PdI (polydispersion index) ([4]; 0.125 mg/ml) | Hydrodynamic Radius ([4]; 0.25 mg/ml) [nm] | PdI (polydispersion index) ([4]; 0.25 mg/ml) | Hydrodynamic Radius ([4]; 0.5 mg/ml) [nm] | PdI (polydispersion index) ([4]; 0.5 mg/ml) | Hydrodynamic Radius ([4]; 1 mg/ml) [nm] | PdI (polydispersion index) ([4]; 1 mg/ml) | Zeta potential [4] | inhibition of FGF2-induced vessels sprouting [3] |
| --- | --- | --- | --- | --- | --- | --- | --- | --- | --- | --- | --- | --- | --- | --- | --- | --- | --- |
| O=C(Nc1ccc2cc(S(=O)(=O)O)cc(O)c2c1)Nc1ccc2cc(S(=O)(=O)O)cc(O)c2c1 [SM27, 6,6'-(carbonylbis(azanediyl))bis(4-hydroxynaphthalene-2-sulfonic acid), reference compound] | 3.9 ± 0.23 | 0.335 |  |  |  |  |  |  |  |  |  |  |  |  |  |  |  |
| COc1ccccc1/N=N/c1c(S(=O)(=O)O)cc2cc(NC(=O)Nc3ccc4c(O)c(/N=N/c5ccc6cc(S(=O)(=O)O)ccc6c5N)c(S(=O)(=O)O)cc4c3)ccc2c1O [SM.2–16, 3-((E)-(1-amino-6-sulfonaphthalen-2-yl)diazenyl)-4-hydroxy-7-(3-(5-hydroxy-6-((E)-(2-methoxyphenyl)diazenyl)-7-sulfonaphthalen-2-yl)ureido)naphthalene-2-sulfonic acid] | 0.59 ± 0.09 | 0.125 | 6–11 fold | 2.140 | 0.495 | 2.364 | 0.742 | 2.149 | 0.452 | 2.511 | 0.663 | 2.265 | 0.533 | 2.283 | 0.695 | −48.0 | significantly inhibited |
| CC(=O)Nc1ccc(/N=N/c2c(S(=O)(=O)O)cc3cc(NC(=O)Nc4ccc5c(O)c(/N=N/c6ccccc6)c(S(=O)(=O)O)cc5c4)ccc3c2O)cc1 [SM.2–19, 3-((E)-(4-acetamidophenyl)diazenyl)-4-hydroxy-7-(3-(5-hydroxy-6-((E)-phenyldiazenyl)-7-sulfonaphthalen-2-yl)ureido)naphthalene-2-sulfonic acid] | 0.35 ± 0.03 |  | 6–11 fold |  |  |  |  |  |  |  |  |  |  |  |  |  | not |
| Cc1ccc(/N=N/c2c(S(=O)(=O)O)cc3cc(NC(=O)Nc4ccc5c(O)c(/N=N/c6ccc7cc(S(=O)(=O)O)ccc7c6)c(S(=O)(=O)O)cc5c4)ccc3c2O)c(C)c1 [SM.2–23, 3-((E)-(2,4-dimethylphenyl)diazenyl)-4-hydroxy-7-(3-(5-hydroxy-7-sulfo-6-((E)-(6-sulfonaphthalen-2-yl)diazenyl)naphthalen-2-yl)ureido)naphthalene-2-sulfonic acid] | 0.53 ± 0.11 | 0.093 | 6–11 fold |  |  | 2.370 | 0.677 | 2.765 | 0.557 | 2.951 | 0.59 | 2.597 | 0.539 | 2.877 | 0.545 | −52.2 | significantly inhibited |

The next lines start with results.

| IC50 [1] [µM] | Kd [2] [µM] | fold more active than the initial query SM27 (competition IC50) [1] | Hydrodynamic Radius ([4]; 0.03125 mg/ml) [nm] | PdI (polydispersion index) ([4]; 0.03125 mg/ml) | Hydrodynamic Radius ([4]; 0.0625 mg/ml) [nm] | PdI (polydispersion index) ([4]; 0.0625 mg/ml) | Hydrodynamic Radius ([4]; 0.125 mg/ml) [nm] | PdI (polydispersion index) ([4]; 0.125 mg/ml) | Hydrodynamic Radius ([4]; 0.25 mg/ml) [nm] | PdI (polydispersion index) ([4]; 0.25 mg/ml) | Hydrodynamic Radius ([4]; 0.5 mg/ml) [nm] | PdI (polydispersion index) ([4]; 0.5 mg/ml) | Hydrodynamic Radius ([4]; 1 mg/ml) [nm] | PdI (polydispersion index) ([4]; 1 mg/ml) | Zeta potential [4] | Structure (SMILES) | inhibition of FGF2-induced vessels sprouting [3] |
| --- | --- | --- | --- | --- | --- | --- | --- | --- | --- | --- | --- | --- | --- | --- | --- | --- | --- |
| 0.5 ± 0.11 | 0.318 | 6–11 fold | 2.186 | 0.523 | 2.159 | 0.658 | 2.172 | 0.635 | 2.480 | 0.789 | 2.571 | 0.518 | 2.878 | 0.595 | −50.2 | Cc1ccccc1/N=N/c1c(S(=O)(=O)O)cc2cc(NC(=O)Nc3ccc4c(O)c(/N=N/c5ccc6cc(S(=O)(=O)O)ccc6c5)c(S(=O)(=O)O)cc4c3)ccc2c1O [SM.2–20, 4-hydroxy-7-(3-(5-hydroxy-7-sulfo-6-((E)-(6-sulfonaphthalen-2-yl)diazenyl)naphthalen-2-yl)ureido)-3-((E)-o-tolyldiazenyl)naphthalene-2-sulfonic acid] | significantly inhibited |
| 0.42 ± 0.09 | 0.039 | 6–11 fold |  |  |  |  |  |  |  |  |  |  |  |  |  | Cc1cccc(/N=N/c2c(S(=O)(=O)O)cc3cc(NC(=O)Nc4ccc5c(O)c(/N=N/c6ccc7cc(S(=O)(=O)O)ccc7c6)c(S(=O)(=O)O)cc5c4)ccc3c2O)c1 [SM.2–22, 4-hydroxy-7-(3-(5-hydroxy-7-sulfo-6-((E)-(6-sulfonaphthalen-2-yl)diazenyl)naphthalen-2-yl)ureido)-3-((E)-m-tolyldiazenyl)naphthalene-2-sulfonic acid] | significantly inhibited |
